Measurements published in patent US20200253870A1, “A LDV LIPOSOMAL FORMULATION OF PHOTO SYSTEM-I FOR TREATMENT OF CANCER” (priority 2016, published 2020).
≈ marks a conversion by molar mass, not a printed value.

Columns and labels:
[1] = test system: B16F10 cells; experiment: MTT cell viability assay in B16F10 cells; type: cell-based; details: Mus musculus, B16-F10, B16F10, 15.62 μg/mL, Table 5 comparison, 24 h
Experimental: B16F10 and A375 cells were treated with the LDV liposomal formulation of PSI and cellular viability was checked using MTT assay. It is a colorimetric assay where MTT (Methyl thiazolyl diphenyl-tetrazolium bromide), a yellow tetrazole compound, is reduced to purple formazan by cellular reductase enzymes of live cells. Dead cells cannot do this type of reduction and are not able to develop the purple colour. […] The live cells are called as viable cells and it is denoted as % viability in the Y-axis. On the X-axis four different concentrations of the said formulation was plotted. The absorbance at 550 nm was measured and the % viability was calculated.
(§1) Cells were seeded at a density of 10000 cells per well in 96-well plate before 24 hours of treatment. Cells were treated with different concentrations of LDV liposomal formulation of PSI. After that cells were incubated for 48 hours in complete media. MTT solution (5 mg/mL) was prepared in PBS. 50 μL of MTT solution was added into each well and incubated at 37° C. for 4 hours. Purple colored formazan was dissolved in 1:1 (v/v) DMSO/MeOH and absorbances of the wells were measured at 550 nm by micro-plate ELISA reader. The % viability from this absorbance values was calculated.

[2] = test system: A375 cells; experiment: cells; type: cell-based, human; details: A-375, MTT
Experimental: B16F10 and A375 cells were treated with the LDV liposomal formulation of PSI and cellular viability was checked using MTT assay. […] Therefore an idea about the amount of cells lived after the treatment of LDV liposomal formulation of PSI with respect to those cells (control) which are not treated with the peptide. […] The absorbance at 550 nm was measured and the % viability was calculated.
as §1
A375 cells were seeded at a density of 10000 cells per well in 96-well plate before 24 hours of treatment. Cells were treated with LDV-liposome-PSI and doxorubicin for 24 hours. MTT assay as described was performed and IC50 value was calculated using CompuSyn software.

[3] = MTT cell viability assay in WI38 normal cells; type: cell-based; details: human, WI38, 15.62 μg/mL, Table 5 comparison
Experimental: B16F10 and WI38 cells were seeded in a 96-well plate at density of 10000 cells per well before 24 h of treatment. Cells were treated with LDV liposomal PSI and normal liposomal PSI separately in complete media for 24 h. After 24 h, MTT assay was performed. […] In case of normal liposomal PSI, inventors have found similar amount of cell viability for both B16F10 and WI38 cells.
B16F10 and A375 cells were treated with the LDV liposomal formulation of PSI and cellular viability was checked using MTT assay. It is a colorimetric assay where MTT (Methyl thiazolyl diphenyl-tetrazolium bromide), a yellow tetrazole compound, is reduced to purple formazan by cellular reductase enzymes of live cells. Dead cells cannot do this type of reduction and are not able to develop the purple colour. Therefore an idea about the amount of cells lived after the treatment of LDV liposomal formulation of PSI with respect to those cells (control) which are not treated with the peptide. The live cells are called as viable cells and it is denoted as % viability in the Y-axis. On the X-axis four different concentrations of the said formulation was plotted. The absorbance at 550 nm was measured and the % viability was calculated.
% Viability=[(A550Treated Cells−A550 Backgrounds)/(A550Untreated Cells−A550 Backgrounds)]*100.

[4] = test system: B16F10 cells; experiment: FACS analysis for apoptosis (annexin V/PI) in B16F10 cells; type: cell-based, mouse; details: B16F10, 15.62 μg/mL, 48 hours
Experimental: Fluorescence activated cell sorting (FACS) experiment was performed for studying the type of cell death. The cell death pathway of B16F10 cells in FACS using apoptosis detection kit was studied. Cells were seeded at a density of ˜5×10^5 cells per well in a 6-well plate before 24 hours of treatment. The cells were treated with solutions of LDV liposomal formulation of PSI. After that cells were incubated for 48 hours. Cells were trypsinized and washed with PBS by help of centrifugation. Cells were incubated in dark at 37° C. for 30 minutes with a 100 μL solution of assay buffer containing 2.5 μL of Propidium iodide (PI) and 2.5 μL of annexin V. All these reagents were supplied along with the apoptosis detection kit (Santa Cruz Biotechnology). The stock concentration of Propidium iodide and annexin V was 50 μg/mL and 200 μg/mL respectively. After this another 400 μL of assay buffer was added to the cells and these total 500 μL of cell solution was analyzed by FACS. The emission of Annexin V and PI was detected in the FITC and PI channels of BD LSRFORTESA flow cytometer using emission filters at 530 and 610 nm respectively. In the represented data, cells in the Q1, Q2 and Q4 quadrants are regarded as necrotic, late apoptotic and early apoptotic cells respectively. Cells in the Q3 quadrant are regarded as normal cells or healthy cells. Data was analyzed using FACS DIVA software. […]

[5] = test system: A375 cells; experiment: FACS analysis for apoptosis (annexin V/PI) in A375 cells; type: cell-based, human; details: A375, 15.62 μg/mL
Experimental: Furthermore FACS analysis using apoptosis detection kit has been performed. FACS analysis, have ascertained that the LDV liposomal formulation of PSI caused apoptotic death of B16F10 and A375 cells (FIGS. 4 and 5). Inventors have performed apoptosis assay using annexin V/PI in B16F10 and A375 cell to compare the amount of apoptotic death of cancer cell due to application of 15.62 μg/mL concentration of LDV liposomal PSI and doxorubicin. Inventors have found large amount of apoptotic death of both the cancer cells (A375 and B16F10) due to LDV liposomal PSI.
Fluorescence activated cell sorting (FACS) experiment was performed for studying the type of cell death. The cell death pathway of B16F10 cells in FACS using apoptosis detection kit was studied. Cells were seeded at a density of ˜5×10^5 cells per well in a 6-well plate before 24 hours of treatment. The cells were treated with solutions of LDV liposomal formulation of PSI. After that cells were incubated for 48 hours. Cells were trypsinized and washed with PBS by help of centrifugation. […] After this another 400 μL of assay buffer was added to the cells and these total 500 μL of cell solution was analyzed by FACS. The emission of Annexin V and PI was detected in the FITC and PI channels of BD LSRFORTESA flow cytometer using emission filters at 530 and 610 nm respectively. […] Data was analyzed using FACS DIVA software. […]

Question: With `COc1cccc2c1C(=O)c1c(O)c3c(c(O)c1C2=O)C[C@@](O)(C(=O)CO)C[C@@H]3O[C@H]1C[C@H](N)[C@H](O)[C@H](C)O1` [Doxorubicin] as the molecule, how does the viability at 15.62 µg/mL [1] read?
Answer: 19.9%

Question: What about the IC50 ([2]; A375, Melanoma (human), CompuSyn software) of the same molecule?
Answer: 10.2 µg/mL (≈ 18.7 µM)

Question: And the viability at 3.12 µg/mL ([2]; Homo sapiens, A375, 3.12 μg/mL)?
Answer: 94%

Question: And the viability at 6.25 µg/mL ([2]; Homo sapiens, A375, 6.25 μg/mL)?
Answer: 59.2%

Question: What about the viability at 12.5 µg/mL ([2]; Homo sapiens, A375, 12.5 μg/mL) of the same molecule?
Answer: 31.5%

Question: What about the viability at 25 µg/mL ([2]; Homo sapiens, A375, 25 μg/mL) of the same molecule?
Answer: 11.7%

Question: And the viability at 50 µg/mL ([2]; Homo sapiens, A375, 50 μg/mL)?
Answer: 4.9%

Question: What about the viability at 100 µg/mL ([2]; Homo sapiens, A375, 100 μg/mL) of the same molecule?
Answer: 6.09%

Question: And the viability at 24 h, 15.62 μg/mL [3]?
Answer: 65.2%

Question: What about the “Amount of Apoptotic death of cancer cell (%)” value [4] of the same molecule?
Answer: 99.9%

Question: And the “Amount of Apoptotic death of cancer cell (%)” value [5]?
Answer: 100%
